From article PMC11384084 (Journal of Traditional and Complementary Medicine, 2024)
Entries after “also recorded” stand apart in the source; their conditions may differ. Read-outs that look alike come from different tables or passages of the source.

Experiments:
[1] = Peak plasma levels (Cmax) of compounds and metabolites on day 14 by UHPLC-MS/MS; format: in vivo, human; details: for Cmax: male, human, plasma, 2 weeks, read-out: UA plasma level, median (Cmax day 14)
Experimental: The compounds and their metabolites were measured using a UHPLC-MS/MS system on a Hybrid quadrupole-Orbitrap mass spectrometer (Q Exactive, Thermo Scientific, Waltham, MA, USA) hyphenated with a Thermo Scientific Vanquish Flex ultrahigh-pressure liquid chromatography (UHPLC) system via an electrospray ionization source. For the parallel reaction monitoring (PRM) scan, the resolution, automatic gain control (AGC) target, and maximum injection time (IT) were set at 17500, 2e5, and 100 ms, respectively. The NCE values for each metabolite were individually set, and the details are provided in Supplemental Table 1. The All-Ion Fragmentation (AIF) scan consisted of a scan range of m/z 100–750 with an NCE of 10. The resolution, AGC target, and maximum IT for the AIF scan were set at […], and 200 ms, respectively. More details regarding the preparation and calibration are provided in the Supplementary Methods section.

[2] = system: healthy men; experiment: Phase 1 clinical trial safety evaluation, adverse events by CTCAE v4.03; format: in vivo, human; details: for Toxicity Grade (CTCAE v4.0) / Relationship To Study Treatment: per event; for Toxicity Grade (CTCAE v4.0) / Relationship To Study Treatment / Event (adverse event term): 2 weeks oral; for Toxicity Grade (CTCAE v4.0) / Adverse Event (Yes/No) / Event (adverse event term): UA 300 mg/day, CURC 1200 mg/day; for Adverse Event (Yes/No) / Event (adverse event term): per subject; for Adverse Event (Yes/No): 2 weeks oral lipid capsules
From the text: We performed a standard 3 × 3 phase 1 design based on the safety evaluation of UA and CURC tested individually and then in combination (Study Schema in Supplemental Fig. 1). We modified the 3 × 3 design to include any toxicities because we selected the maximum dose due to the reported safety of large doses of these compounds. We enrolled subjects for a 2-week study period and used paired samples for individualized comparisons and pooled results for group comparisons.
We recruited healthy men enrolled in the San Antonio Biomarkers of Risk (SABOR) study, a community-based prostate cancer screening cohort. The San Antonio Biomarkers of Risk (SABOR) study cohort was funded by the 10.13039/100000054National Cancer Institute Early Detection Research Network-sponsored Clinical and Epidemiologic Validation Center since its nascent enrollment in 2000 (IRB# HSC20000030H). A separate IRB was approved for the Phase 1 trial (IRB# HSC20190940H). The participants had no prior diagnosis of prostate cancer at the time of enrollment and had varied prostate cancer risk profiles. We used data from the local UT Health San Antonio Data Safety and Monitoring Board (DSMB).
(§1) Safety was compared to evaluate the number, frequency, duration, and relationship of toxicity events to CURC and UA, as defined by the Common Terminology Criteria for Adverse Events (CTCAE) v. 4.03. The secondary outcomes included the measured plasma levels of UA, CURC, and selected metabolites. We also investigated the impact on the microbiome in a paired analysis for changes and the overall theme of imputed bacterial function.

[3] = system: healthy men; experiment: Safety laboratory values, baseline vs end of two-week study; format: in vivo, human
From the text: as §1, with “4.03.” left out
Demographics between groups were compared using Fisher's exact test for categorical variables and Student's t-test for continuous variables. Laboratory safety values were analyzed using a paired t-test for differences, with significance set at p < 0.05. ANOVA was used to compare the plasma levels of UA, CURC, and CURC metabolites. Least significant difference (LSD) was used as the post-hoc analysis test to compare values between groups.
Laboratory analysis was performed at baseline and at the end of the two-week study. We then subtracted the values (week 2: baseline) to obtain the differences for each participant. […] Chronic kidney disease (CKD) is based on glomerulary filtration rate (GFR), and CKD stage 3 starts at a value below 60. […] Bicarbonate can be harmful if large changes occur in either direction, but clinicians are usually concerned about metabolic acidosis.

[4] = Human microsomal metabolism of UA alone or with CURC; format: in vitro ADME; details: UA 4 μM, HLM, NADPH, 37 °C
Experimental: The respective stock solutions were further diluted using MeOH to prepare calibration curve standards and working solutions. The diluent was prepared by spiking the IS (C-d6 and BA) in 100% MeOH to obtain a concentration of 100 ng/mL. The solutions were stored at −20 °C before use. […] Aliquots of 30 μL were collected at different time points, and the reaction was terminated by adding 120 μL of the diluent. Finally, the collected samples were vigorously vortexed, centrifuged for 10 min at 4 °C and 50 μL of the clear supernatant was transferred to LC-MS vials for analysis. UHPLC–MS analysis was performed using a Thermo Scientific Vanquish UHPLC system coupled with an Orbitrap IQ-X Tribrid mass spectrometer with an electrospray ionization (ESI) interface. […] The H-ESI interface was operated in negative ion mode with interface ion transfer tube temperature 320 °C, vaporizing temperature 250 °C, sheath gas 45 Arb, auxiliary gas 10 Arb, sweep gas 2 Arb, and detector voltage 3.5 kV. […] Data processing was performed using the Thermo Scientific Freestyle software (1.8. SP2 version).

[5] = CURC alone group, 1200 mg/day oral, day 14
[6] = combination group (CurcUA), day 14
[7] = adverse event Creatinine increased
[8] = week 2 minus baseline, n = 6 per group
[9] = Musculoskeletal domain adverse event
[10] = Nervous system domain adverse event

Structure (SMILES): COc1cc(/C=C/C(=O)CC(=O)/C=C/c2ccc(O)c(OC)c2)ccc1O [Curcumin, curcumin]
- CURC parent compound plasma level, median [1, 5]: 0.42 ng/mL
- Highest plasma level of CURC [1, 5]: 0.52 ng/mL
- CURC plasma level, median [1, 6]: 0.0 ng/mL
- Toxicity Grade (CTCAE v4.0) ([2]; adverse event Bloating): 2
- Toxicity Grade (CTCAE v4.0) [2, 7]: 1
- Relationship To Study Treatment [2, 7]: Unlikely
- Relationship To Study Treatment ([2]; adverse event Diarrhea): Possible
- Adverse Event (Yes/No) [2]: No and Yes
- Event (adverse event term) ([2]; adverse event Bloating): Bloating
- Event (adverse event term) [2, 7]: Creatinine increased
- Event (adverse event term) ([2]; adverse event Diarrhea): Diarrhea
- Event (adverse event term) ([2]; adverse event Flatulence): Flatulence
- GFR after 2 weeks, individual participant ([3]; baseline GFR 45 (CURC arm participant), 76 (CurcUA participant)): 46
- Creatinine after treatment in subject with event 'Creatinine increased' (Comments) ([3]; individual subjects, baselines 1.10, 1.0, 1.13): Creatine increased from 1.10 to 1.24; also recorded: Creatine increased from 1.0 to 1.21
- Difference in ALT, median (IQR) [3, 8]: −1.0 (−3.25 to 0.0)
- Difference in AST, median (IQR) [3, 8]: 2.0 (−2.0 to 3.3)
- Difference in Albumin, median (IQR) [3, 8]: 0.05 (−0.05 to 0.2)
- Difference in Alkaline Phosphatase, median (IQR) [3, 8]: −2.0 (−5.5 to 9.3)
- Difference in Bicarbonate, median (IQR) [3, 8]: −1.5 (−4.3 to 0.0)
- Difference in Bilirubin, median (IQR) [3, 8]: −0.1 (−0.3 to 0.0)
- Difference in Calcium, median (IQR) [3, 8]: 0.2 (−0.15 to 0.32)
- Difference in Chloride, median (IQR) [3, 8]: −0.5 (−1.3 to 0.8)
- Difference in Creatinine, median (IQR) [3, 8]: 0.07 (−0.07 to 0.16)
- Difference in Glomerular Filtration Rate (GFR), median (IQR) [3, 8]: −5.5 (−12.0 to 4.5)
- Difference in Hematocrit, median (IQR) [3, 8]: 0.25 (−1.45 to 2.35)
- Difference in Hemoglobin, median (IQR) [3, 8]: 0.20 (−0.30 to 0.55)
- Difference in Platelets, median (IQR) [3, 8]: 7.0 (−5 to 31.5)
- Difference in Sodium, median (IQR) [3, 8]: 0.0 (−1.5 to 1.0)
- Difference in White blood cell (WBC), median (IQR) [3, 8]: 0.15 (−0.43 to 0.68)

Structure (SMILES): C[C@H]1[C@H](C)CC[C@]2(C(=O)O)CC[C@]3(C)C(=CC[C@@H]4[C@@]5(C)CC[C@H](O)C(C)(C)[C@@H]5CC[C@]43C)[C@H]12 [Ursolic Acid, ursolic acid]
- Cmax ([1]; UA alone group, UA 300 mg/day oral): 2.7 ng/mL
- Cmax ([1]; combination group (CurcUA), UA 300 mg/day + CURC 1200 mg/day oral): 43.8 ng/mL
- Increase of UA plasma levels, combination vs UA alone ([1]; median 2.7 to 43.8 ng/mL): 16 fold
- Number of low-grade gastrointestinal (GI)-related complaints attributed ([2]; CTCAE v4.03, n): 3
- Relationship To Study Treatment [2]: Unlikely
- Toxicity Grade (CTCAE v4.0) [2, 9]: 1
- Toxicity Grade (CTCAE v4.0) [2, 10]: 2
- Adverse Event (Yes/No) [2]: No and Yes
- Event (adverse event term) [2, 9]: Joint pain
- Event (adverse event term) [2, 10]: Vasovagal Reaction; also recorded: Pre-syncope
- UA remaining at 40 min ([4]; UA-only incubations): 47%
- UA remaining at 40 min ([4]; ratio 1:4 (UA: CURC)): 73%
- Difference in ALT, median (IQR) [3, 8]: 1.5 (1.0–12.8)
- Difference in AST, median (IQR) [3, 8]: 2.0 (−1.3 to 3.3)
- Difference in Albumin, median (IQR) [3, 8]: 0.0 (−0.1 to 0.2)
- Difference in Alkaline Phosphatase, median (IQR) [3, 8]: 2.5 (−2.5 to 5.0)
- Difference in Bicarbonate, median (IQR) [3, 8]: 1.0 (−1.5 to 3.0)
- Difference in Bilirubin, median (IQR) [3, 8]: 0.0 (−0.08 to 0.15)
- Difference in Calcium, median (IQR) [3, 8]: 0.03 (−0.05 to 0.48)
- Difference in Chloride, median (IQR) [3, 8]: −1.0 (−2.75 to 1.75)
- Difference in Creatinine, median (IQR) [3, 8]: −0.08 (−0.33 to 0.12)
- Difference in Hematocrit, median (IQR) [3, 8]: 1.55 (−0.85 to 2.85)
- Difference in Hemoglobin, median (IQR) [3, 8]: 0.20 (−0.33 to 0.58)
- Difference in Platelets, median (IQR) [3, 8]: 9.5 (2.5–27)
- Difference in Sodium, median (IQR) [3, 8]: 0.5 (−1.5 to 2.25)
- Difference in White blood cell (WBC), median (IQR) [3, 8]: 0.20 (−0.23 to 0.85)

Structure (SMILES): COc1cc(/C=C/C(=O)CC(=O)/C=C/c2ccc(O[C@@H]3O[C@H](C(=O)O)[C@@H](O)[C@H](O)[C@H]3O)c(OC)c2)ccc1O [CURC glucuronide, curcumin glucuronide]
- CURC glucuronide plasma level, median [1, 5]: 24.0 ng/mL
- CURC glucuronide plasma level, median [1, 6]: 25 ng/mL
